Measurements reported in ChEMBL document CHEMBL1614632, “Trend analysis of a database of intravenous pharmacokinetic parameters in humans for 670 drug compounds” (Drug Metab Dispos, 2008).
Square brackets hold non-standard residues; d marks the D form. Peptide text beside a SMILES is read from it. dPhe(4-Cl) = N[C@H](Cc1ccc(Cl)cc1)C(=O)O; d2Nal = N[C@H](Cc1ccc2ccccc2c1)C(=O)O; dCit = NC(=O)NCCC[C@@H](N)C(=O)O; d3Pal = N[C@H](Cc1cccnc1)C(=O)O

Assays:
[1] = clinical; conditions: human, in vivo, iv, Vdss
[2] = clinical; conditions: human, in vivo, iv, CL
[3] = clinical; conditions: human, in vivo, iv
[4] = clinical; conditions: human, in vivo, iv; remark: listed apart in the source
[5] = clinical; conditions: human, in vivo, iv, t1/2

| SMILES | Vd [1] [L/kg] | clearance [2] [mL/min/kg] | fraction unbound [3] | MRT [4] [h] | half-life [5] [h] |
| --- | --- | --- | --- | --- | --- |
| CCN(CC)CCNC(=O)c1cc(Br)c(N)cc1OC [BROMOPRIDE] | 3.1 | 13 | 0.6 | 4 | 2.9 |
| CO[C@@]1(NC(=O)CSCC#N)C(=O)N2C(C(=O)O)=C(CSc3nnnn3C)CS[C@@H]21 [CEFMETAZOLE] | 0.13 | 1.5 | 0.15 | 1.5 | 1.5 |
| COc1cc(NS(C)(=O)=O)ccc1Nc1c2ccccc2nc2ccccc12 [AMSACRINE] | 1.6 | 4.3 | 0.029 | 6.2 | 4.7 |
| CCNC(=O)[C@@H]1CCCN1C(=O)[C@H](CCCNC(=N)N)NC(=O)[C@H](CC(C)C)NC(=O)[C@@H](CC(C)C)NC(=O)[C@H](Cc1ccc(O)cc1)NC(=O)[C@H](CO)NC(=O)[C@H](Cc1c[nH]c2ccccc12)NC(=O)[C@H](Cc1c[nH]cn1)NC(=O)[C@@H]1CCC(=O)N1 [LEUPROLIDE] | 0.38 | 2 | 0.54 | 3.1 | 2.9 |
| CC(=O)N[C@@H](CS)C(=O)O [ACETYLCYSTEINE] | 0.55 | 3.1 | 0.17 | 3 | 5.5 |
| CC(Oc1ccccc1)C(=O)N[C@@H]1C(=O)N2[C@@H]1SC(C)(C)[C@@H]2C(=O)O (stereo not given in full) [PHENETHICILLIN] | 0.3 | 4.2 | 0.25 | 1.2 | 0.91 |
| Cc1ncsc1CCCl [CLOMETHIAZOLE] | 6.6 | 33 | 0.36 | 3.3 | 4.5 |
| CCN[C@@H]1C[C@H](N)[C@@H](O[C@H]2OC(CN)=CC[C@H]2N)[C@H](O)[C@H]1O[C@H]1OC[C@](C)(O)[C@H](NC)[C@H]1O [NETILMICIN] | 0.073 | 0.55 | 1 | 2.2 | 3.2 |
| CC(=O)N[C@H](Cc1ccc2ccccc2c1)C(=O)N[C@H](Cc1ccc(Cl)cc1)C(=O)N[C@H](Cc1cccnc1)C(=O)N[C@@H](CO)C(=O)N[C@@H](Cc1ccc(O)cc1)C(=O)N[C@H](CCCNC(N)=O)C(=O)N[C@@H](CC(C)C)C(=O)N[C@@H](CCCNC(=N)N)C(=O)N1CCC[C@H]1C(=O)N[C@H](C)C(N)=O [CETRORELIX] (Ac-[d2Nal][dPhe(4-Cl)][d3Pal]SY[dCit]LRP[dA]-NH2) | 0.39 | 1.2 | 0.14 | 5.4 | 12 |
| CCOC(=O)C1=C(C)NC(C)=C(C(=O)OC)C1c1cccc([N+](=O)[O-])c1 (stereo not given) [NITRENDIPINE] | 6.1 | 25 | 0.02 | 4.1 | 8.2 |
| C#C[C@]1(O)CC[C@H]2[C@@H]3CCc4cc(O)ccc4[C@H]3CC[C@@]21C [ETHINYL ESTRADIOL] | 4.3 | 7 | 0.014 | 11 | 9.7 |
| NS(=O)(=O)c1cc(C(=O)O)cc(N2CCCC2)c1Oc1ccccc1 [PIRETANIDE] | 0.17 | 3.1 | 0.058 | 0.91 | 1.3 |
| Cc1ccccc1OCC(O)CNCCOc1ccc(C(N)=O)cc1 (stereo not given) [TOLAMOLOL] | 4 | 14 | 0.089 | 4.8 | 2.5 |
| CN(C)[C@@H]1C(O)=C(C(N)=O)C(=O)[C@@]2(O)C(O)=C3C(=O)c4c(O)ccc(Cl)c4[C@@H](O)[C@H]3C[C@@H]12 [DEMECLOCYCLINE] | 1.3 | 1.1 | 0.59 | 17 | 12 |
| NC(N)=Nc1nc(CSCCC(N)=NS(N)(=O)=O)cs1 [FAMOTIDINE] | 1.2 | 6.6 | 0.84 | 3 | 2.8 |
| CC1(C)C(/C=C/C=C/C=C/C=C2/N(CCCCS(=O)(=O)[O-])c3ccc4ccccc4c3C2(C)C)=[N+](CCCCS(=O)(=O)[O-])c2ccc3ccccc3c21.[Na+] [INDOCYANINE GREEN] | 0.035 | 6.8 | 0.05 | 0.086 | 0.065 |
| Nc1nc(N)c2nc(-c3ccccc3)c(N)nc2n1 | 13 | 63 | 0.42 | 3.4 | 4.3 |
| COc1cc(NCc2ccc3nc(N)nc(N)c3c2C)cc(OC)c1OC [TRIMETREXATE] | 0.77 | 0.77 | 0.05 | 17 | 17 |
| O=C1C(O)=C([C@H]2CC[C@H](c3ccc(Cl)cc3)CC2)C(=O)c2ccccc21 [ATOVAQUONE] | 0.6 | 0.15 | 0.001 | 67 | 63 |
| NC[C@H]1O[C@H](O[C@H]2[C@H](O)[C@@H](O[C@H]3O[C@H](CO)[C@@H](O)[C@H](N)[C@H]3O)[C@H](N)C[C@@H]2N)[C@H](N)C[C@@H]1O [TOBRAMYCIN] | 0.23 | 1.6 | 1 | 2.4 | 2 |
